IC50 and inhibition data for eight compounds are collected here from ChEMBL document CHEMBL1127256, “Synthesis of C2-symmetric inhibitors of the HIV-1 protease, with N,N-substituted ethylenediamide and ethylenediamine linkers” (Bioorg Med Chem Lett, 1994).

The source made the active and inactive calls. The rule behind the calls is not given here. A value given as a limit tells only on which side of the number the result lay.

Assay [1] has as its target Human immunodeficiency virus type 1 protease (Human immunodeficiency virus 1, UniProt Q72874). Nature of the assay: Inhibitory concentration against HIV-1 protease.
The target in assay [2] is Human immunodeficiency virus type 1 protease (Human immunodeficiency virus 1) (UniProt Q72874). Nature of the assay: Percent inhibition of HIV-1 protease against substrate HKARVL-(NO2)F-EAnLSNH2 (test III) at a concentration of 10 e-5M.
For assay [3] the target is unchanged. Nature of the assay: Percent inhibition of HIV-1 protease against substrate SQN-(pNO2)F-PIV (test II) at a concentration of 10 e-5M; Inactive.
For assay [4] the target is unchanged. Briefly: Percent inhibition of HIV-1 protease against substrate TLNFPIS-AMC (test I) at a concentration of 10 e-5M; Inactive.
The target is the same in assay [5]. Nature of the assay: Percent inhibition of HIV-1 protease against substrate SQN-(pNO2)F-PIV (test II) at a concentration of 10 e-5M.
Assay [6] shares this target. Nature of the assay: Percent inhibition of HIV-1 protease against substrate TLNFPIS-AMC (test I) at a concentration of 10 e-5M.
For assay [7] the target is unchanged. Nature of the assay: Percent inhibition of HIV-1 protease against substrate HKARVL-(NO2)F-EAnLSNH2 (test III) at a concentration of 10 e-5M; Inactive.

Compound `CC(C)[C@H](NC(=O)OCc1ccccc1)C(=O)N[C@@H](Cc1ccccc1)[C@@H](O)[C@H](O)[C@H](Cc1ccccc1)NC(=O)[C@H](NC(=O)OCc1ccccc1)C(C)C` showed an IC50 in assay [1] of less than 1 nM.
In assay [2], `CC(C)[C@H](NC(=O)OCc1ccccc1)C(=O)N[C@@H](Cc1ccccc1)C(=O)NCCNC(=O)[C@H](Cc1ccccc1)NC(=O)[C@H](NC(=O)OCc1ccccc1)C(C)C` came in with an inhibition of 25%. For the same compound, the inhibition entry in assay [3] and in assay [4] was “inactive” throughout.
As to `CC(C)[C@H](NC(=O)OCc1ccccc1)C(=O)N[C@@H](Cc1ccccc1)CN(CCN(C[C@H](Cc1ccccc1)NC(=O)[C@H](NC(=O)OCc1ccccc1)C(C)C)C(=O)OC(C)(C)C)C(=O)OC(C)(C)C`, the inhibition in assay [5] and in assay [6] was 3% each time. Further, the inhibition result in assay [7] was “inactive”.
On to `CC(C)[C@H](NC(=O)OCc1ccccc1)C(=O)N[C@H](CNCCNC[C@H](Cc1ccccc1)NC(=O)[C@H](NC(=O)OCc1ccccc1)C(C)C)Cc1ccccc1`, for which the inhibition in assay [5] and in assay [6] was 3% throughout. Also, the inhibition entry in assay [7] was “inactive”.
For `CC(C)[C@H](NC(=O)OCc1ccccc1)C(=O)N[C@@H](Cc1ccccc1)CN(CCO)CCN(CCO)C[C@H](Cc1ccccc1)NC(=O)[C@H](NC(=O)OCc1ccccc1)C(C)C`, the inhibition stood at 9% in assay [2], 30% in assay [5] and 8% in assay [6].
The like results for `CC(C)[C@H](NC(=O)OCc1ccccc1)C(=O)N[C@@H](Cc1ccccc1)CN(CCN(CC(=O)O)C[C@H](Cc1ccccc1)NC(=O)[C@H](NC(=O)OCc1ccccc1)C(C)C)CC(=O)O` were, in that order, 33%, 53% and 36%.
Take `CC(C)[C@H](NC(=O)OCc1ccccc1)C(=O)N[C@@H](Cc1ccccc1)CN(C)CCN(C)C[C@H](Cc1ccccc1)NC(=O)[C@H](NC(=O)OCc1ccccc1)C(C)C`: the inhibition in assay [5] and in assay [6] was 3% each time. The inhibition entry in assay [7] is “inactive”.
Turning to `CC(C)[C@H](NC(=O)OCc1ccccc1)C(=O)N[C@@H](Cc1ccccc1)C(=O)N(C)CCN(C)C(=O)[C@H](Cc1ccccc1)NC(=O)[C@H](NC(=O)OCc1ccccc1)C(C)C`, the inhibition in assay [2] came out at 16%. The inhibition entry in assay [3] and in assay [4] was “inactive” throughout.

By IC50 is commonly meant the concentration at which inhibition is half-maximal. Low values mean greater potency, high ones weaker potency. In general, inhibition refers to the percentage by which the read-out fell short of the control.
